Measured values published in patent publication US20240050735A1, “SYSTEMS AND METHODS FOR TREATING AND INHIBITING WOUND INFECTIONS” (priority 2020, published 2024).
Like-named read-outs stand apart in the source and are kept apart here.

What was measured:
[1] = tested on: HDFa cells; assay: Cell toxicity of high concentration of antibiotics, LIVE/DEAD stain; assay type: cell-based, human; conditions: 20 mg mL^−1 DAP, 24 hour incubation
Description: (§1) To evaluate the cell toxicity of the high concentration of antibiotics, HaCaT cells and HDFa cells were used. 2×10^4 HaCat cells and 2×10^3 HDFa cells were seeded in each well of a 96-well plate. After being cultured in an incubator under 37° C. and 5% CO2 for 24 hours, 4.5 mg mL^−1 VAN and 20 mg mL^−1 DAP were added to the culture media, respectively. Both HaCat cells and HDFa cells were treated by VAN for two days, and exposed to DAP for one day, respectively. The cell toxicity of the two cells at the end time points were evaluated by LIVE/DEAD stain and visualized by a confocal laser scanning microscope (CLSM, LSM 710, Zeiss, Germany).

[2] = tested on: HaCaT cells; assay: as above; assay type: cell-based, human; conditions: 20 mg mL^−1 DAP, 24 hour incubation
Description: as §1

[3] = tested on: S. aureus persister cells; conditions: even at 100×MIC; cited from earlier work
[4] = assay type: in vitro ADME; conditions: for concentration delivered to wound tissues: 5 mg mL^−1 DAP loaded
Description: Investigations were also performed to determine the iontophoretic antibiotic delivery efficiency of the HIC-based biofilm treatment system 100 using high current intensities. These investigations included an ex vivo antibiotic delivery study using the same MRSA biofilm-infected porcine skin wound model as in the previous section. Vancomycin (VAN) was used here as a model drug, since it is the FDA-approved antibiotic and is the clinical gold standard for combating S. aureus infections.
First the VAN delivery efficiency was tested at different current intensities (from 0 mA cm^−2 (passive diffusion) to 75 mA cm^−2) applied by the HIC-based biofilm treatment system 100 for 1 hour. The drug/buffer chamber 114 of the working device 104 was loaded with 1 mg mL^−1 VAN in this study. The anode side was used as the working device 104 because VAN required anodal iontophoresis. The accumulated concentration of VAN in biofilm infected skin wound was measured immediately after iontophoresis using high performance liquid chromatography (HPLC). […] When 75 mA cm^−2 was used, the VAN concentration in wound tissue increased to 4.5±0.52 mg g^−1. The VAN concentration in wound tissue after passive diffusion, 0.5 mA cm^−2, and 19 mA cm^−2 iontophoresis were also measured. However, they could not be distinguished from the background interference of the residual biofilm components, so no quantitative results were obtained (data not shown). Importantly, the VAN concentration delivered by 75 mA cm^−2 iontophoresis for 1 hour exceeded the minimal biofilm eradication concentration (MBEC) of VAN reported for MRSA biofilm, which was 4 mg g^−1. The ability to deliver a lethal antibiotic concentration into biofilm-infected wounds within a short period of time was critical for biofilm treatment as it would minimize the chance for bacteria to develop adaptive tolerance.
The fetal pig skin samples (approximately 30×30 mm) were immersed in 10% (v/v) bleach for 5 minutes after hair removal. Then, skin samples were sterilized in 70% ethanol for 30 minutes. The surface of skin sample was further cleaned by 10% povidone-iodine and 70% isopropanol to prevent contamination. A 6-mm disposable biopsy punch was used to create an excisional wound. Samples were put into sterile 10-cm petri-dishes filled with sterile PBS (6 mL). The wound was then inoculated with 1×10^8 CFU mL^−1 MRSA bacteria solution (20 μL). The bacteria were allowed to grow in a 37° C. Heratherm™ compact microbiological incubator (ThermoFischer Scientific™, Waltham, Mass., USA) for 48 hours to form mature biofilms.
To evaluate the antibiotic delivery efficacy of VAN by high-intensity current, biofilm infected fetal pig skin wound was used. The DAP test setup was same as that of VAN, except no PBS chamber 122 was used. Instead, the inner surface of the skin wound contacted directly to the hydrogel 120 of the counter device 106. To evaluate the effect of electrical current intensity on the drug delivery efficacy, different current intensities from 0 to 75 mA cm^−2 were applied. To evaluate the effect of loading concentration of antibiotics, different concentrations of VAN and DAP from 1 mg mL^−1 to 10 mg mL^−1 were used. Since VAN is […] and DAP is negatively charged under physiological environment, anode HIC-based device was placed facing biofilm for VAN iontophoresis, and cathode HIC-based device was placed facing biofilm for DAP iontophoresis. Samples were collected immediately after different treatments. The concentrations of antibiotics delivered into skin wound samples were measured by high-performance liquid chromatography (HPLC). The permeation coefficient (Pc, cm s^−1) was then calculated (Pc=J/C, where J is antibiotic delivery flux in tissue samples (μg (cm^2s)^−1, C is the loading concentration of antibiotic solution (μg m L^−1)). […]

[5] = tested on: planktonic MRSA; assay: Time-killing test on planktonic MRSA in stationary phase; assay type: cell-based, Methicillin-resistant S. aureus (MRSA) USA300; conditions: 5 mg mL^−1 DAP, within 24 hours
Description: MRSA bacteria was cultured in LB media in a 37° C. water shaking bath overnight to reach the concentration of 1×10^8 CFU mL^−1. Then, they were diluted to 10^5 CFU mL^−1 in 96-well plates by adding different concentrations of VAN solutions. After incubation for 24 hours without shaking, MIC of VAN to inhibit MRSA growth was measured by a Biotek Synergy H1 hybrid multi-mode microplate reader (BioTek, Winooski, Vt., USA) at OD600. To evaluate the killing time of VAN to bacteria in stationary phase (1×10^8 CFU mL^−1), VAN powder was added to bacteria solution to obtain concentration of 1 mg mL^−1, 3 mg mL^−1, 5 mg mL^−1, and 10 mg mL^−1, respectively, while remaining MRSA concentration of 1×10^8 CFU mL^−1. After incubation in a 37° C. water bath for 1 day, 2 days, 3 days and 4 days, the CFU of MRSA cells was tested by the standard plate spread counting assay, respectively. The time-killing tests of DAP with different concentrations (0.1 mg mL^−1, 0.5 mg mL^−1, 1 mg mL^−1, and 5 mg mL^−1) on MRSA planktonic cells were also performed, with the incubation time up to 24 hours.

[6] = assay type: in vitro ADME, porcine; conditions: for distribution in wound tissue (fluorescence): 1 mg mL^−1 FD-4
Description: It was determined that high-intensity iontophoresis using the HIC-based biofilm treatment system 100 was able to enhance the VAN penetration depth in wound tissues. A high penetration depth would allow effective treatment of bacteria in deeper layers of clinical biofilm infections to minimize biofilm reformation. A fluorescently labeled dextran (M.W.=4 kDa, FD-4) was used to visualize drug distribution in wound tissue immediately after iontophoresis in this test. […] All wound tissues were dehydrated by acetone before sectioning to minimize FD-4 mobility during sample processing. When passive diffusion and 0.5 mA cm^−2 were applied, the fluorescence was indiscernible under microscope. […] This penetration depth was higher than the typical thickness of in vivo S. aureus biofilm infections in skin wounds (150 μm above wound surface and 190 μm below wound surface).
FD-4 penetration and distribution in the MRSA biofilm infected skin wound was evaluated by cryo-section and fluorescent microscopy. Briefly, samples were collected by 8-mm disposable biopsy punch and dehydrated in acetone for 10 to 30 minutes. After being air dried for another 10 to 30 minutes, the samples were embedded in tissue freezing medium (OCT) and sectioned to obtain 10 μm section under −20 ° C. Section samples were then observed under a fluorescent microscope (DMI 6000 B, Leica, Bannockburn, Ill., USA).

[7] = tested on: S. gordonii biofilms; conditions: cited from earlier work

Compound: CCCCCCCCCC(=O)N[C@@H](Cc1c[nH]c2ccccc12)C(=O)N[C@H](CC(N)=O)C(=O)N[C@@H](CC(=O)O)C(=O)N[C@@H]1C(=O)NCC(=O)N[C@@H](CCCN)C(=O)N[C@@H](CC(=O)O)C(=O)N[C@H](C)C(=O)N[C@@H](CC(=O)O)C(=O)NCC(=O)N[C@H](CO)C(=O)N[C@@H]([C@H](C)CC(=O)O)C(=O)N[C@@H](CC(=O)c2ccccc2N)C(=O)O[C@@H]1C [DAP, Daptomycin]
- viability of skin cells [1]: did not have significant impact
- viability of skin cells [2]: did not have significant impact
- killing of S. aureus persister cells [3]: not capable of killing
- Pc at 75 mA cm^−2 higher than 0.5 mA cm^−2 iontophoresis ([4]; 5 mg mL^−1 DAP): 10.1 times
- Pc at 75 mA cm^−2 higher than passive diffusion ([4]; 5 mg mL^−1 DAP): 12.0 times
- permeation coefficient (Pc) ([4]; 0.5 mA cm^−2 iontophoresis, 5 mg mL^−1 DAP): 15.7±3.37 ×10^−6 cm s^−1
- concentration delivered into wound tissue ([4]; 75 mA cm^−2, 1 hour, 1 mg mL^−1 DAP loaded): 3.3 ± 1.49 mg/g
- concentration delivered to wound tissues ([4]; 75 mA cm^−2, 1 hour): 19.9 ± 1.45 mg/g
- concentration delivered into wound tissue ([4]; 75 mA cm^−2, 1 hour, 10 mg mL^−1 DAP loaded): 32.8 ± 5.68 mg/g
- permeation coefficient (Pc) ([4]; 75 mA cm^−2 iontophoresis, 5 mg mL^−1 DAP): 158.3±11.18 ×10^−6 cm s^−1
- permeation coefficient (Pc) ([4]; passive diffusion, 5 mg mL^−1 DAP): 13.2±3.15 ×10^−6 cm s^−1
- concentration delivered to wound tissues ([4]; passive diffusion, 1 hour): 1.7 ± 0.59 mg/g
- bacterial count after incubation (from 10^8 CFU g^−1) [5]: 0 CFU g^−1

Compound: Fluorescein isothiocyanate (FITC) labeled dextran-4 kDa [FD-4]
- distribution in wound tissue (fluorescence) ([6]; 0.5 mA cm^−2, 1 hour): indiscernible
- distribution in wound tissue (fluorescence) ([6]; 19 mA cm^−2, 1 hour): fluorescence could only be seen near the upper boundary of the wound tissue
- penetration depth (entire tissue thickness, after dehydration) ([6]; 75 mA cm^−2, 1 hour): 182.4±12.62 μm
- penetration depth (entire tissue thickness, before dehydration) ([6]; 75 mA cm^−2, 1 hour): 955.7±192.56 μm
- distribution in wound tissue (fluorescence) ([6]; 75 mA cm^−2, 1 hour): penetrated the entire thickness of the tissue sample
- distribution in wound tissue (fluorescence) ([6]; passive diffusion, 1 hour): indiscernible

Compound: gentamicin
- biofilm bacterial count reduction ([7]; 0.4 mA cm^−2 with 2 μg mL^−1 gentamicin, 24 hours): 4.3 log10 scales
- bacteria count reduction ([7]; antibiotic alone): 0.8 log10 scale
